Values quoted from earlier work as cited in patent publication US20240398764A1, “METHODS OF TREATING DISEASES ASSOCIATED WITH SENESCENT CELL ACCUMULATION” (University of Florida Research Foundation, Incorporated, priority 2021, published 2024).

Assays:
[1] = system: platelets; conditions: literature statement; cited from earlier work
[2] = system: platelets; conditions: vs ABT263; cited from earlier work
[3] = system: SnCs; conditions: vs ABT263; cited from earlier work

SMILES	Platelet apoptosis / thrombocytopenia [1]	Toxicity to platelets compared with ABT263 [2]	Potency against SnCs compared with ABT263 [3]
CC1(C)CCC(c2ccc(Cl)cc2)=C(CN2CCN(c3ccc(C(=O)NS(=O)(=O)c4ccc(N[C@H](CCN5CCOCC5)CSc5ccccc5)c(S(=O)(=O)C(F)(F)F)c4)cc3)CC2)C1 [ABT263]	induces platelet apoptosis and results in severe thrombocytopenia	–	–
CC1(C)CCC(c2ccc(Cl)cc2)=C(CN2CCN(c3ccc(C(=O)NS(=O)(=O)c4ccc(N[C@H](CCN5CCN(C(=O)CCCn6cc(COCCOCCNc7cccc8c7C(=O)N(C7CCC(=O)NC7=O)C8=O)nn6)CC5)CSc5ccccc5)c(S(=O)(=O)C(F)(F)F)c4)cc3)CC2)C1 (stereo partly shown) [PZ15227]	–	less toxic to platelets	equally or slightly more potent against SnCs
CC1(C)CCC(CN2CCN(c3ccc(C(=O)NS(=O)(=O)c4ccc(NCC5CCOCC5)c([N+](=O)[O-])c4)c(Oc4cnc5[nH]ccc5c4)c3)CC2)=C(c2ccc(Cl)cc2)C1 [ABT199]	does not induce thrombocytopenia	–	–
